According to patent publication US12291502B2, “Topoisomerase II-alpha inhibitors and methods of treating cancer using the same” (The Regents of the University of Colorado, priority 2019, dated 2025):
“Also recorded” adds a separate entry of the source.

Legend:
[1] = Water solubility (stated); format: physicochemical
hTopoIIα (TOP2A) = target: T1, hTopoIIα (TOP2A) (Homo sapiens, UniProt P11388); assay: TOP2A ATPase / DNA relaxation assay, Michaelis-Menten mode of inhibition (malachite green); format: biochemical; settings: Vmax unchanged, KM shifted
T1 construct: purchased Topogen, CO
Protocol: TOP2A inhibition (Michaelis-Menten). TOP2A Mode of Inhibition was tested with a relaxation assay and the inorganic phosphate (pi) generated was measured with phosphate reagent (Abcam) in black polystyrene 384-well assay plates (Thermo Fisher Scientific). ATP-dependent DNA relaxation assays in 15 μl contained 2 U hTopolla (Topogen), 85 μg/mil (10 nM) supercoiled plasmid (a gift from AstraZeneca), and various concentrations of ATP (between […]) and analog 3 and 7 (between 0 and 20 μM) in 50 mM Tris-HCl (pH 7.5), 150 mM KCl, 5% (v/v) glycerol, 10 mM MgCl2, 1 mM dithiothreitol, 0.002% (w/v) Brij-35, and 200 nM bovine serum albumin (BSA). […] An addition of 70 μL of ddH2O and 15 μL of phosphate reagent were added to each well and the plates were incubated in dark at room temp for 30 min before OD600 was read with a BioTek plate reader. […]
TOP2A ATPase Assay. The mode of inhibition of TOP2A analogs were tested with a DNA relaxation assay and the inorganic phosphate (pi) generated was measured with malachite green phosphate reagent (Abcam, MA) in black polystyrene 384-well assay plates (Thermo Fisher Scientific, MA). […] An addition of 70 μL of ddH2O and 15 μL of phosphate reagent were added to each well and the plates were incubated in dark at room temp for 30 min before OD600 was read with a BioTek plate reader. […]

SW620 cells = assay: Clonogenic assay (24 h pretreatment of cells); format: cell-based; settings: SW620 cells pretreated 24 hours, colonies over 7 days vs DMSO
Protocol: Clonogenic assay. SW620 cells were plated to allow for 70% confluency within 24 hours. Analogs 3, 7, and vehicle (DMSO) were then added to cells for 24 hours as pretreatment. A total of 1000 viable cells per well were plated into a six-well plate and medium was changed 2× per week. […] The fixed colonies were stained with 0.5% (w/v) crystal violet in 25% (v/v) methanol solution for 2 hours at room temperature. The stain was rinsed off with water and the plate was air dried at room temperature. Digital pictures were taken, and the images were saved in greyscale (8-bit). Images were adjusted for threshold with imaged software (Bethesda, MD, USA), the area of analysis was circled, and particles were analyzed by size (100-2000) and circularity (0.5-1).
After characterizing 3 and 7 as TOP2A ATP-competitive inhibitors, these compounds were next tested for their ability to inhibit TOP2A-dependent TCF-transcription using the well characterized TOPflash (TOP) luminescent reporter, which was used to generate a stably transduced SW620-TOP reporter cells as described previously (Zhou, et al., Oncogene 2016, 35:4990-9). These cells were used to generate single 3D tumor organoids (700 μm in diameter) uniformly arrayed in 96-well plates, which mimic aspects of tumor function observed in vivo. […]

T1 sequence (P11388 whole entry): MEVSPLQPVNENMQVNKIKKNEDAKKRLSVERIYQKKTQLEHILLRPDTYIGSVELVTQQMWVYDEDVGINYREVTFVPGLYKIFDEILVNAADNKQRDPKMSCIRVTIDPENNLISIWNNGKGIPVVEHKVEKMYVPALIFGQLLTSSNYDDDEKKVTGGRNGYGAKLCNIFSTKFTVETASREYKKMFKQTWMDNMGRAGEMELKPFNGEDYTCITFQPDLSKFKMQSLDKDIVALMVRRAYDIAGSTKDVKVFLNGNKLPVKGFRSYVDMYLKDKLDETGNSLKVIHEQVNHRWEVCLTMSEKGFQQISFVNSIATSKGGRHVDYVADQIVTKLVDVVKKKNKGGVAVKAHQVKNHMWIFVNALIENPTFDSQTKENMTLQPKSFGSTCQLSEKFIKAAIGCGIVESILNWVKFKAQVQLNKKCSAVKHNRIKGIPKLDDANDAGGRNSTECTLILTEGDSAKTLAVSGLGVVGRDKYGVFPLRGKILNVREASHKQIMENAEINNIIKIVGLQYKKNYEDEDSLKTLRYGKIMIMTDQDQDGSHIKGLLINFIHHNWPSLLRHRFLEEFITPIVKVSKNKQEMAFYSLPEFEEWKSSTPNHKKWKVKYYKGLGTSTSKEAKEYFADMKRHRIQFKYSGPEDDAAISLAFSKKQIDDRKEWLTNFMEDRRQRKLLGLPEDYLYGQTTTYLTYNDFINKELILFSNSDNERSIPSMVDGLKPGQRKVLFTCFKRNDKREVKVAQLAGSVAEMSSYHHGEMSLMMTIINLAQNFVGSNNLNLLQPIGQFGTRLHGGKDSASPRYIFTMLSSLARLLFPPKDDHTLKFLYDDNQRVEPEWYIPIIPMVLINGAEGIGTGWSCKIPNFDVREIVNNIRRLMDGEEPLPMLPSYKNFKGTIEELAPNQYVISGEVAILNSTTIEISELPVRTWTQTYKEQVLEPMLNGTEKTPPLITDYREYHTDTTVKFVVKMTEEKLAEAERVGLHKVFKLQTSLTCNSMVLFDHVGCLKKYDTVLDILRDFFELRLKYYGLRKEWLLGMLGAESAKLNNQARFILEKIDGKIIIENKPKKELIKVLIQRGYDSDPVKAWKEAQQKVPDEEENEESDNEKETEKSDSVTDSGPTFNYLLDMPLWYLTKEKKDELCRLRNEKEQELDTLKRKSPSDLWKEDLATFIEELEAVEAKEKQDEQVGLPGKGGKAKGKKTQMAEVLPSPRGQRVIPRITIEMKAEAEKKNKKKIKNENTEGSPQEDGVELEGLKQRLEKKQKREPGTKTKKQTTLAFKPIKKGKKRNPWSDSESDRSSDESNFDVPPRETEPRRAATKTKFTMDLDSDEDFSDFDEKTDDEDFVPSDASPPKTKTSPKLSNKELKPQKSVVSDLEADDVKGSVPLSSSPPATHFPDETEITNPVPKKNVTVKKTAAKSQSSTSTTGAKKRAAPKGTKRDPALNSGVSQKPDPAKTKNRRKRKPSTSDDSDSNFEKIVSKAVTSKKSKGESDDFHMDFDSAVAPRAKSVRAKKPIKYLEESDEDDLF

| Structure (SMILES) | water solubility, in words [1] | mode of TOP2A inhibition (Michaelis-Menten kinetics of ATP hydrolysis) (hTopoIIα (TOP2A)) | clonogenic colony formation, in words (SW620 cells) |
| --- | --- | --- | --- |
| O=C(CCN1CCOCC1)Nc1ccc2c(-c3cc(F)ccc3O)ccnc2c1O [Analog 42] | water soluble; also recorded: significantly improved water solubility |  |  |
| CC(=O)Nc1ccc2c(-c3cc(F)ccc3O)ccnc2c1O [Analog 7] |  | ATP-competitive mode of inhibition | sufficient to inhibit colony formation; also recorded: significantly inhibit clonogenic colony formation |
| Cn1ccc2c(c1=O)C(=O)c1nccc3c1C2NC1=CCC=CC13 (stereo not shown) [neo, neoamphimedine, reference compound] |  | ATP-competitive mode of inhibition |  |
